Assay results as given in the supplement of paper PMC4862054.

Each compound was assayed on BT-549 (assay: normalised viability (% of control), CellTiter-Blue; higher = more viable cells (about 100 = DMSO control)). Settings: 10 nM; incubation time: 72 h.
Summary of the method: (§1)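 Breast cancer cell lines in 20 µl suspension were seeded onto 384-well plates pre-loaded with compound dissolved in 5 µl medium, then incubated 72 h. CellTiter-Blue reagent (2.5 µl) was added for 2 h at 37 °C and fluorescence read at 560/590 nm. Each plate was normalised to vehicle (100) and a positive kill control (0), with Z'-factor quality control. The value is normalised viability at one listed concentration of the series.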
Work on `Cn1c(Nc2ccc(C(F)(F)F)cc2)nc2cc(Oc3ccnc(-c4ncc(C(F)(F)F)[nH]4)c3)ccc21` [RAF265] yielded a normalised viability of 84.1%. `Cc1ccc(C(=O)N(CCCN)[C@@H](c2oc3cc(Cl)ccc3c(=O)c2Cc2ccccc2)C(C)C)cc1` showed a normalised viability of 27.4%.

Same assay, conditions: 100 nM; incubation time: 72 h
With `CNCc1ccc(-c2[nH]c3cc(F)cc4c3c2CCNC4=O)cc1` [Rucaparib] the normalised viability was 112%. `C[C@]12CC[C@@H]3c4ccc(O)cc4C[C@@H](CCCCCCCCC[S+]([O-])CCCC(F)(F)C(F)(F)F)[C@H]3[C@@H]1CC[C@@H]2O` (stereo partly drawn) [Fulvestrant] gave a normalised viability of 94.8%. Work on `CN(C)/N=N/c1[nH]cnc1C(N)=O` [Dacarbazine] yielded a normalised viability of 99.4%. For `CC(C)Cn1cnc2c(N)nc3ccccc3c21` [Imiquimod], the normalised viability was 96.1%. For `C#Cc1cccc(Nc2ncnc3cc(OCCOC)c(OCCOC)cc23)c1` [Erlotinib], the normalised viability was 110%. For `O=P1(NCCCl)OCCCN1CCCl` (stereo not drawn) [Ifosfamide], the normalised viability was 115%. Work on `Cc1ccc(-n2nc(C(C)(C)C)cc2NC(=O)Nc2ccc(OCCN3CCOCC3)c3ccccc23)cc1` [Doramapimod] yielded a normalised viability of 98.7%. Compound `COc1cc([C@@H]2c3cc4c(cc3[C@@H](O[C@@H]3O[C@@H]5CO[C@@H](C)O[C@H]5[C@H](O)[C@H]3O)[C@H]3COC(=O)[C@H]23)OCO4)cc(OC)c1O` [Etoposide] has a normalised viability of 77.5%. `CN(N=O)C(=O)N[C@@H](C=O)[C@@H](O)[C@H](O)[C@H](O)CO` [Streptozocin] was tested, and the normalised viability was 104%.

Same assay, conditions: 400 nM; incubation time: 72 h
With `N[C@@H](CSC(c1ccccc1)(c1ccccc1)c1ccccc1)C(=O)O` [S-trityl-L-cysteine] the normalised viability was 75.4%.

Each compound was assayed on CAL-148 in the same assay as above. Settings: 1 nM; incubation time: 72 h.
Summary of the method: as §1
For `Cn1c(Nc2ccc(C(F)(F)F)cc2)nc2cc(Oc3ccnc(-c4ncc(C(F)(F)F)[nH]4)c3)ccc21` [RAF265], the normalised viability was 94%. Compound `Cc1ccc(C(=O)N(CCCN)[C@@H](c2oc3cc(Cl)ccc3c(=O)c2Cc2ccccc2)C(C)C)cc1` has a normalised viability of 92.5%.

Same assay, conditions: 10 nM; incubation time: 72 h
`CNCc1ccc(-c2[nH]c3cc(F)cc4c3c2CCNC4=O)cc1` [Rucaparib] showed a normalised viability of 83.4%. `C[C@]12CC[C@@H]3c4ccc(O)cc4C[C@@H](CCCCCCCCC[S+]([O-])CCCC(F)(F)C(F)(F)F)[C@H]3[C@@H]1CC[C@@H]2O` (stereo partly drawn) [Fulvestrant] gave a normalised viability of 86.5%. `CN(C)/N=N/c1[nH]cnc1C(N)=O` [Dacarbazine] gave a normalised viability of 96.4%. `CC(C)Cn1cnc2c(N)nc3ccccc3c21` [Imiquimod] gave a normalised viability of 105%. `C#Cc1cccc(Nc2ncnc3cc(OCCOC)c(OCCOC)cc23)c1` [Erlotinib] was tested, and the normalised viability was 98.8%. For `O=P1(NCCCl)OCCCN1CCCl` (stereo not drawn) [Ifosfamide], the normalised viability was 92.2%. With `Cc1ccc(-n2nc(C(C)(C)C)cc2NC(=O)Nc2ccc(OCCN3CCOCC3)c3ccccc23)cc1` [Doramapimod] the normalised viability was 95.3%. Compound `COc1cc([C@@H]2c3cc4c(cc3[C@@H](O[C@@H]3O[C@@H]5CO[C@@H](C)O[C@H]5[C@H](O)[C@H]3O)[C@H]3COC(=O)[C@H]23)OCO4)cc(OC)c1O` [Etoposide] has a normalised viability of 93.8%. `CN(N=O)C(=O)N[C@@H](C=O)[C@@H](O)[C@H](O)[C@H](O)CO` [Streptozocin] gave a normalised viability of 99.6%.

Same assay, conditions: 40 nM; incubation time: 72 h
`N[C@@H](CSC(c1ccccc1)(c1ccccc1)c1ccccc1)C(=O)O` [S-trityl-L-cysteine] was tested, and the normalised viability was 106%.

What follows are compounds tested on CAL-85-1 in the same assay as above. Settings: 1 nM; incubation time: 72 h.
Summary of the method: as §1
Work on `Cn1c(Nc2ccc(C(F)(F)F)cc2)nc2cc(Oc3ccnc(-c4ncc(C(F)(F)F)[nH]4)c3)ccc21` [RAF265] yielded a normalised viability of 92%. `Cc1ccc(C(=O)N(CCCN)[C@@H](c2oc3cc(Cl)ccc3c(=O)c2Cc2ccccc2)C(C)C)cc1` gave a normalised viability of 98.7%.

Same assay, conditions: 10 nM; incubation time: 72 h
Compound `CNCc1ccc(-c2[nH]c3cc(F)cc4c3c2CCNC4=O)cc1` [Rucaparib] has a normalised viability of 87.6%. In the case of `C[C@]12CC[C@@H]3c4ccc(O)cc4C[C@@H](CCCCCCCCC[S+]([O-])CCCC(F)(F)C(F)(F)F)[C@H]3[C@@H]1CC[C@@H]2O` (stereo partly drawn) [Fulvestrant], the normalised viability is reported as 95.8%. For `CN(C)/N=N/c1[nH]cnc1C(N)=O` [Dacarbazine], the normalised viability was 91.8%. `CC(C)Cn1cnc2c(N)nc3ccccc3c21` [Imiquimod] was tested, and the normalised viability was 95.2%. `C#Cc1cccc(Nc2ncnc3cc(OCCOC)c(OCCOC)cc23)c1` [Erlotinib] was tested, and the normalised viability was 95.4%. For `O=P1(NCCCl)OCCCN1CCCl` (stereo not drawn) [Ifosfamide], the normalised viability was 95.5%. Compound `Cc1ccc(-n2nc(C(C)(C)C)cc2NC(=O)Nc2ccc(OCCN3CCOCC3)c3ccccc23)cc1` [Doramapimod] has a normalised viability of 91.1%. In the case of `COc1cc([C@@H]2c3cc4c(cc3[C@@H](O[C@@H]3O[C@@H]5CO[C@@H](C)O[C@H]5[C@H](O)[C@H]3O)[C@H]3COC(=O)[C@H]23)OCO4)cc(OC)c1O` [Etoposide], the normalised viability is reported as 101%. `CN(N=O)C(=O)N[C@@H](C=O)[C@@H](O)[C@H](O)[C@H](O)CO` [Streptozocin] was tested, and the normalised viability was 105%.

Same assay, conditions: 40 nM; incubation time: 72 h
`N[C@@H](CSC(c1ccccc1)(c1ccccc1)c1ccccc1)C(=O)O` [S-trityl-L-cysteine] showed a normalised viability of 101%.

What follows are compounds tested on DU-4475 in the same assay as above. Settings: 1 nM; incubation time: 72 h.
Summary of the method: as §1
Compound `Cn1c(Nc2ccc(C(F)(F)F)cc2)nc2cc(Oc3ccnc(-c4ncc(C(F)(F)F)[nH]4)c3)ccc21` [RAF265] has a normalised viability of 92.1%. `Cc1ccc(C(=O)N(CCCN)[C@@H](c2oc3cc(Cl)ccc3c(=O)c2Cc2ccccc2)C(C)C)cc1` showed a normalised viability of 105%.

Same assay, conditions: 10 nM; incubation time: 72 h
`CNCc1ccc(-c2[nH]c3cc(F)cc4c3c2CCNC4=O)cc1` [Rucaparib] was tested, and the normalised viability was 106%. `C[C@]12CC[C@@H]3c4ccc(O)cc4C[C@@H](CCCCCCCCC[S+]([O-])CCCC(F)(F)C(F)(F)F)[C@H]3[C@@H]1CC[C@@H]2O` (stereo partly drawn) [Fulvestrant] showed a normalised viability of 105%. `CN(C)/N=N/c1[nH]cnc1C(N)=O` [Dacarbazine] gave a normalised viability of 98.4%. Compound `CC(C)Cn1cnc2c(N)nc3ccccc3c21` [Imiquimod] has a normalised viability of 93.5%. `C#Cc1cccc(Nc2ncnc3cc(OCCOC)c(OCCOC)cc23)c1` [Erlotinib] gave a normalised viability of 94.9%.
